Key:
Type in all cases: in vivo
Wheat [1] = assay: pre-emergence herbicide test; conditions: Triticum aestivum, pre-emergence, 0.25 lb/A; read-out: % plant inhibition
Procedure: (§1) Topsoil was placed in an aluminum pan and compacted to a depth of 1.3 to 1.6 cm from the top of the pan. On the top of the soil was placed a predetermined number of seeds of each of several monocotyledonous and dicotyledonous annual plant species and/or vegetative propagules of various perennial plant species. The pan was then level filled with a cover layer of topsoil to which was added a known amount of active ingredient either prior to or after application of the cover layer. The active ingredient was dissolved or suspended in an organic solvent, e.g., acetone, or water as carrier for application to the cover layer. The pans were moved to a greenhouse bench where they were thereafter watered from below as needed to give adequate moisture for germination and growth. In some cases, an initial overhead irrigation of 1/4 inch of water was applied immediately after treatment.
(§2) Approximately 14 days after seeding and treating, the pans were observed and the results (% inhibition) were recorded.
(§3) The tables below summarize the results of the pre-emergence herbicidal activity tests of compounds of this invention tested with warm season plants (Tables 2a-2d) and cool season plants (Tables 3a and 3b). The herbicidal rating shown in these tables is the percent inhibition of each plant species. The plant species usually regarded as weeds are identified in the tables by single letter headings and crop species identified by two letter headings both headings being above the columns in accordance with the following legend: […]

Downy Brome [2] = assay: pre-emergence herbicide test; conditions: Bromus tectorum, pre-emergence, 0.25 lb/A; read-out: % plant inhibition
Procedure: as §1, §2, §3

Birdseye Speedwell [3] = assay: pre-emergence herbicide test; conditions: pre-emergence, 0.25 lb/A; read-out: % plant inhibition
Procedure: as §1, §2, §3

Bedstraw Catchweed [4] = assay: pre-emergence herbicide test; conditions: Galium aparine, pre-emergence, 0.25 lb/A; read-out: % plant inhibition
Procedure: as §1, §2, §3

Cocklebur [5] = assay: pre-emergence herbicide test; conditions: Xanthium strumarium, pre-emergence, 0.25 lb/A; read-out: % plant inhibition
Procedure: as §1, §2, §3

Soybean [6] = assay: pre-emergence herbicide test; conditions: Glycine max, pre-emergence, 0.25 lb/A; read-out: % plant inhibition
Procedure: as §1, §2, §3

Corn [7] = assay: pre-emergence herbicide test; conditions: Zea mays, pre-emergence, 0.25 lb/A; read-out: % plant inhibition
Procedure: as §1, §2, §3

Rape [8] = assay: pre-emergence herbicide test; conditions: pre-emergence, 0.25 lb/A; read-out: % plant inhibition
Procedure: as §1, §2, §3

Barnyardgrass [9] = assay: pre-emergence herbicide test; conditions: Echinochloa crus-galli, pre-emergence, 0.25 lb/A; read-out: % plant inhibition
Procedure: as §1, §2, §3

Velvetleaf [10] = assay: pre-emergence herbicide test; conditions: Abutilon theophrasti, pre-emergence, 0.25 lb/A; read-out: % plant inhibition
Procedure: as §1, §2, §3

Giant Foxtail [11] = assay: pre-emergence herbicide test; conditions: Setaria faberi, pre-emergence, 0.25 lb/A; read-out: % plant inhibition
Procedure: as §1, §2, §3

Wild Oats [12] = assay: pre-emergence herbicide test; conditions: Avena fatua, pre-emergence, 0.25 lb/A; read-out: % plant inhibition
Procedure: as §1, §2, §3

Morning Glory [13] = assay: pre-emergence herbicide test; conditions: Ipomoea, pre-emergence, 0.25 lb/A; read-out: % plant inhibition
Procedure: as §1, §2, §3

Green Foxtail [14] = assay: pre-emergence herbicide test; conditions: Setaria viridis, pre-emergence; 0.25 lb/A; read-out: % plant inhibition
Procedure: as §1, §2, §3

Common Chickweed [15] = assay: pre-emergence herbicide test; conditions: pre-emergence, 0.25 lb/A; read-out: % plant inhibition
Procedure: as §1, §2, §3

Blackgrass [16] = assay: pre-emergence herbicide test; conditions: Alopecurus myosuroides, pre-emergence, 0.25 lb/A; read-out: % plant inhibition
Procedure: as §1, §2, §3

Seedling Johnsongrass [17] = assay: pre-emergence herbicide test; conditions: Sorghum halepense, pre-emergence, 0.25 lb/A; read-out: % plant inhibition
Procedure: as §1, §2, §3

Wheat [18] = assay: post-emergence herbicide test; conditions: Triticum aestivum, post-emergence, 0.25 lb/A; read-out: % plant inhibition
Description: (§4) Topsoil was placed in aluminum pans having holes in the bottom and compacted to a depth of 1.3 to 1.6 cm from the top of the pan. A predetermined number of seeds of each of several dicotyledonous and monocotyledonous annual plant species and/or vegetative propagules for the perennial plant species were placed on the soil and pressed into the soil surface. The seeds and/or vegetative propagules were covered with soil and leveled. The pans were then placed on a bench in the greenhouse and watered either from overheard irrigation or by subirrigation as needed. After the plants reach the desired age (two to three weeks), each pan, is removed individually to a spraying chamber and sprayed by means of an atomizer, operating at a spray pressure of 170.3 kPa […] at the application rates noted. In the spray solution was an amount of an emulsifying agent mixture to give a spray solution or suspension which contains about 0.4% by volume of the emulsifier. The spray solution or suspension contained a sufficient amount of the candidate chemical in order to give application rates of the active ingredient corresponding to those shown in Tables 4 and 5, while applying a total amount of solution or suspension equivalent to 1870 L/Ha (200 gallons/acre). […] The post-emergent herbicidal activity shown in these tables is the percent inhibition of each plant species. Testing with warm season and cool season plants is shown in tables 4a-4d and […], respectively.

Downy Brome [19] = assay: post-emergence herbicide test; conditions: Bromus tectorum, post-emergence, 0.25 lb/A; read-out: % plant inhibition
Description: as §4

Birdseye Speedwell [20] = assay: post-emergence herbicide test; conditions: post-emergence, 0.25 lb/A; read-out: % plant inhibition
Description: as §4

Bedstraw Catchweed [21] = assay: post-emergence herbicide test; conditions: Galium aparine, post-emergence, 0.25 lb/A; read-out: % plant inhibition
Description: as §4

Cocklebur [22] = assay: post-emergence herbicide test; conditions: Xanthium strumarium, post-emergence, 0.25 lb/A; read-out: % plant inhibition
Description: as §4

Soybean [23] = assay: post-emergence herbicide test; conditions: Glycine max, post-emergence, 0.25 lb/A; read-out: % plant inhibition
Description: as §4

Corn [24] = assay: post-emergence herbicide test; conditions: Zea mays, post-emergence, 0.25 lb/A; read-out: % plant inhibition
Description: as §4

Rape [25] = assay: post-emergence herbicide test; conditions: post-emergence, 0.25 lb/A; read-out: % plant inhibition
Description: as §4

Barnyardgrass [26] = assay: post-emergence herbicide test; conditions: Echinochloa crus-galli, post-emergence, 0.25 lb/A; read-out: % plant inhibition
Description: as §4

Velvetleaf [27] = assay: post-emergence herbicide test; conditions: Abutilon theophrasti, post-emergence, 0.25 lb/A; read-out: % plant inhibition
Description: as §4

Giant Foxtail [28] = assay: post-emergence herbicide test; conditions: Setaria faberi, post-emergence, 0.25 lb/A; read-out: % plant inhibition
Description: as §4

Wild Oats [29] = assay: post-emergence herbicide test; conditions: Avena fatua, post-emergence, 0.25 lb/A; read-out: % plant inhibition
Description: as §4

Morning Glory [30] = assay: post-emergence herbicide test; conditions: Ipomoea, post-emergence, 0.25 lb/A; read-out: % plant inhibition
Description: as §4

Green Foxtail [31] = assay: post-emergence herbicide test; conditions: Setaria viridis, post-emergence, 0.25 lb/A; read-out: % plant inhibition
Description: as §4

Common Chickweed [32] = assay: post-emergence herbicide test; conditions: post-emergence, 0.25 lb/A; read-out: % plant inhibition
Description: as §4

Blackgrass [33] = assay: post-emergence herbicide test; conditions: Alopecurus myosuroides, post-emergence, 0.25 lb/A; read-out: % plant inhibition
Description: as §4

Seedling Johnsongrass [34] = assay: post-emergence herbicide test; conditions: Sorghum halepense, post-emergence, 0.25 lb/A; read-out: % plant inhibition
Description: as §4

| SMILES | inhibition at 280.212 g/ha (Wheat [1]) | inhibition at 280.212 g/ha (Downy Brome [2]) | inhibition at 280.212 g/ha (Birdseye Speedwell [3]) | inhibition at 280.212 g/ha (Bedstraw Catchweed [4]) | inhibition at 280.212 g/ha (Cocklebur [5]) | inhibition at 280.212 g/ha (Soybean [6]) | inhibition at 280.212 g/ha (Corn [7]) | inhibition at 280.212 g/ha (Rape [8]) | inhibition at 280.212 g/ha (Barnyardgrass [9]) | inhibition at 280.212 g/ha (Velvetleaf [10]) | inhibition at 280.212 g/ha (Giant Foxtail [11]) | inhibition at 280.212 g/ha (Wild Oats [12]) | inhibition at 280.212 g/ha (Morning Glory [13]) | inhibition at 280.212 g/ha (Green Foxtail [14]) | inhibition at 280.212 g/ha (Common Chickweed [15]) | inhibition at 280.212 g/ha (Blackgrass [16]) | inhibition at 280.212 g/ha (Seedling Johnsongrass [17]) | inhibition at 280.212 g/ha (Wheat [18]) | inhibition at 280.212 g/ha (Downy Brome [19]) | inhibition at 280.212 g/ha (Birdseye Speedwell [20]) | other results |
| --- | --- | --- | --- | --- | --- | --- | --- | --- | --- | --- | --- | --- | --- | --- | --- | --- | --- | --- | --- | --- | --- |
| CCC(C)OC(=O)c1cc(-c2nn(C)c(C(F)(F)F)c2C)c(F)cc1Cl (centres unmarked) [Compound 58] | 5% | 100% | 100% | 95% | 75% | 25% | 20% | 50% | 100% | 100% | 100% | 75% | 100% | 100% | 100% | 95% | 100% | 18% | 85% | 100% | inhibition at 280.212 g/ha (Bedstraw Catchweed [21]): 90%; inhibition at 280.212 g/ha (Cocklebur [22]): 99%; inhibition at 280.212 g/ha (Soybean [23]): 85%; inhibition at 280.212 g/ha (Corn [24]): 20%; inhibition at 280.212 g/ha (Rape [25]): 65%; inhibition at 280.212 g/ha (Barnyardgrass [26]): 85%; inhibition at 280.212 g/ha (Velvetleaf [27]): 100%; inhibition at 280.212 g/ha (Giant Foxtail [28]): 95%; inhibition at 280.212 g/ha (Wild Oats [29]): 85%; inhibition at 280.212 g/ha (Morning Glory [30]): 100%; inhibition at 280.212 g/ha (Green Foxtail [31]): 85%; inhibition at 280.212 g/ha (Common Chickweed [32]): 95%; inhibition at 280.212 g/ha (Blackgrass [33]): 80%; inhibition at 280.212 g/ha (Seedling Johnsongrass [34]): 95% |
| CSCc1cc(-c2nn(C)c(C(F)(F)F)c2C)c(F)cc1Cl [Compound 27] | 0% | 5% | 35% | 65% | 20% | 3% | 5% | 10% | 60% | 90% | 50% | 5% | 75% | 100% | 75% | 35% | 90% | 13% | 40% | 100% | inhibition at 280.212 g/ha (Bedstraw Catchweed [21]): 90%; inhibition at 280.212 g/ha (Cocklebur [22]): 80%; inhibition at 280.212 g/ha (Soybean [23]): 80%; inhibition at 280.212 g/ha (Corn [24]): 65%; inhibition at 280.212 g/ha (Rape [25]): 50%; inhibition at 280.212 g/ha (Barnyardgrass [26]): 70%; inhibition at 280.212 g/ha (Velvetleaf [27]): 98%; inhibition at 280.212 g/ha (Giant Foxtail [28]): 35%; inhibition at 280.212 g/ha (Wild Oats [29]): 25%; inhibition at 280.212 g/ha (Morning Glory [30]): 95%; inhibition at 280.212 g/ha (Green Foxtail [31]): 75%; inhibition at 280.212 g/ha (Common Chickweed [32]): 65%; inhibition at 280.212 g/ha (Blackgrass [33]): 30%; inhibition at 280.212 g/ha (Seedling Johnsongrass [34]): 90% |

Reference: patent US5672715A, “Herbicidal substituted 3-aryl-pyrazoles” (Monsanto Company, priority 1995, dated 1997)
